Literature values, collected in patent US11564907B2, “Methods and compositions for the treatment of retinopathy and other ocular diseases” (Lankenau Institute for Medical Research, priority 2014, dated 2023).

Test system: allogeneic mouse concepti
Settings: pregnant mice; Munn et al. (1998), Mellor et al. (2001)

Compound: Cn1cc(C[C@H](N)C(=O)O)c2ccccc21 [1-methyl-tryptophan]
- rejection of allogeneic mouse concepti: could elicit T cell-dependent rejection of allogeneic mouse concepti
